According to BindingDB's records for doi:10.1016/s0960-894x(00)00402-9 (Pharmacia, 2000):

Target: DNA polymerase catalytic subunit (Human cytomegalovirus) (UniProt P08546)
Experiment: Inhibitory activity against Human Cytomegalovirus (HCMV) polymerase

DNA polymerase catalytic subunit (Human cytomegalovirus), sequence (P08546 whole entry, looked up): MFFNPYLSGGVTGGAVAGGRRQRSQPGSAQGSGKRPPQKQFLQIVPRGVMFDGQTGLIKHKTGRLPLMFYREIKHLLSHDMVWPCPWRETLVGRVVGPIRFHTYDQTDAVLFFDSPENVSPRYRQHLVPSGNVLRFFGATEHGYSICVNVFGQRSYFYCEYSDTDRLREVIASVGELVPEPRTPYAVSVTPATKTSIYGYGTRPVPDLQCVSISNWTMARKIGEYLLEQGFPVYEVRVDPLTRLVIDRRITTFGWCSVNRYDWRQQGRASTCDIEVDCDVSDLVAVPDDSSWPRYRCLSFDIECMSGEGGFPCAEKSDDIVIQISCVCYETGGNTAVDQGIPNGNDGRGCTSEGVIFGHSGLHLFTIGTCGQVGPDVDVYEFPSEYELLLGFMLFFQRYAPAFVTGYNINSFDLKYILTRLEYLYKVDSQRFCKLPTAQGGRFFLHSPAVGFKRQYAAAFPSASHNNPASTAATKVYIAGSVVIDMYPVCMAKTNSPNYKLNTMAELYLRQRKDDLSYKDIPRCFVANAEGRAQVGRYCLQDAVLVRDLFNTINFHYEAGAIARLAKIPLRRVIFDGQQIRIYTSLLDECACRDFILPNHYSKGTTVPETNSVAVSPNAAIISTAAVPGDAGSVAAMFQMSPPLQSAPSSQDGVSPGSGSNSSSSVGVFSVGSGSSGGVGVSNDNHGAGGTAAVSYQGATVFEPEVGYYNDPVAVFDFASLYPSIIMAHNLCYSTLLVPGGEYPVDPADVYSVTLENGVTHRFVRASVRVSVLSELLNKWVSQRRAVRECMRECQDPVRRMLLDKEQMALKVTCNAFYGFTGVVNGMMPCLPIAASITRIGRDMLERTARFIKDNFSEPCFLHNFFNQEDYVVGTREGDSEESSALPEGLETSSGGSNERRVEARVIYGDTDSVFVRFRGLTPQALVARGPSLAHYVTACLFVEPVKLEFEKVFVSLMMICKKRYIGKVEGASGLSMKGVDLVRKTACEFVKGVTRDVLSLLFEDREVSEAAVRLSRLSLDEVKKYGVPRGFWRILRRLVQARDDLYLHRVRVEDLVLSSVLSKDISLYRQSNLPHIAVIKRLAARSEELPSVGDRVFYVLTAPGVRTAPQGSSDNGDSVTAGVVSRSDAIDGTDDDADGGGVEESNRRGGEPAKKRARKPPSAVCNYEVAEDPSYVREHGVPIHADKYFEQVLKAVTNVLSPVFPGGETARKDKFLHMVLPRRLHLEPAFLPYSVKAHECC

Row | Structure (SMILES) | IC50 [µM]
1 | COc1ccc(NC(=O)c2cc3ccccc3cc2O)cc1 | 56
2 | O=C(Nc1cccc([N+](=O)[O-])c1)c1cc2ccccc2cc1O | 12
3 | O=C(NCc1ccc(Cl)cc1)c1ccc2ccccc2c1O [1-Hydroxy-naphthalene-2-carboxylic acid 4-chloro-benzylamide] | 13
4 | O=C(NCc1ccc([N+](=O)[O-])cc1)c1ccc2ccccc2c1O [1-Hydroxy-naphthalene-2-carboxylic acid 4-nitro-benzylamide] | 14.5
5 | O=C(Nc1ccc(Cl)cc1)c1ccc2ccccc2c1O [1-Hydroxy-naphthalene-2-carboxylic acid (4-chloro-phenyl)-amide] | 37
6 | O=C(NCc1ccc(Cl)cc1)c1cc2cccc(O)c2cc1O [3,5-Dihydroxy-naphthalene-2-carboxylic acid 4-chloro-benzylamide] | 3.3
7 | O=C(NCc1ccc([N+](=O)[O-])cc1)c1cc2cccc(O)c2cc1O [3,5-Dihydroxy-naphthalene-2-carboxylic acid 4-nitro-benzylamide] | 3.8
8 | O=C(NCc1ccc(Cl)cc1)c1cc2cc(O)ccc2cc1O [3,7-Dihydroxy-naphthalene-2-carboxylic acid 4-chloro-benzylamide] | 2.4
9 | O=C(NCc1ccc([N+](=O)[O-])cc1)c1cc2cc(O)ccc2cc1O [3,7-Dihydroxy-naphthalene-2-carboxylic acid 4-nitro-benzylamide] | 10.6
10 | COc1ccc2cc(O)c(C(=O)NCc3ccc(Cl)cc3)cc2c1 [3-Hydroxy-7-methoxy-naphthalene-2-carboxylic acid 4-chloro-benzylamide] | 0.76
11 | COc1ccc2cc(O)c(C(=O)NCc3ccc([N+](=O)[O-])cc3)cc2c1 [3-Hydroxy-7-methoxy-naphthalene-2-carboxylic acid 4-nitro-benzylamide] | 0.82
12 | COc1ccc2cc(O)c(C(=O)Nc3nc4c(Cl)cccc4s3)cc2c1 [3-Hydroxy-7-methoxy-naphthalene-2-carboxylic acid (4-chloro-benzothiazol-2-yl)-amide] | 6.4
13 | COc1ccc2cc(O)c(C(=O)Nc3ncc(Cl)s3)cc2c1 [3-Hydroxy-7-methoxy-naphthalene-2-carboxylic acid (5-chloro-thiazol-2-yl)-amide] | 59
14 | COc1ccc2cc(O)c(C(=O)Nc3nc(-c4cccc([N+](=O)[O-])c4)cs3)cc2c1 [3-Hydroxy-7-methoxy-naphthalene-2-carboxylic acid [4-(3-nitro-phenyl)-thiazol-2-yl]-amide] | 2.4
15 | COc1ccc2cc(O)c(C(=O)Nc3nc(-c4ccc(Cl)cc4)cs3)cc2c1 [3-Hydroxy-7-methoxy-naphthalene-2-carboxylic acid [4-(4-chloro-phenyl)-thiazol-2-yl]-amide] | 6
16 | COc1ccc2cc(O)c(C(=O)Nc3nnc(Cc4ccc(Cl)cc4)s3)cc2c1 [3-Hydroxy-7-methoxy-naphthalene-2-carboxylic acid [5-(4-chloro-benzyl)-[1,3,4]thiadiazol-2-yl]-amide] | 4
17 | O=C(NCc1ccc(Cl)cc1)c1cc2ccccc2cc1O [3-Hydroxy-naphthalene-2-carboxylic acid 4-chloro-benzylamide] | 52
18 | O=C(NCc1ccc([N+](=O)[O-])cc1)c1cc2ccccc2cc1O [3-Hydroxy-naphthalene-2-carboxylic acid 4-nitro-benzylamide] | 12

Row | Structure (SMILES) | IC50 [µM]
19 | Nc1cccc(NC(=O)c2cc3ccccc3cc2O)c1 [3-Hydroxy-naphthalene-2-carboxylic acid (3-amino-phenyl)-amide] | > 100
20 | O=C(Nc1ccc(Br)cc1)c1cc2ccccc2cc1O [3-Hydroxy-naphthalene-2-carboxylic acid (4-bromo-phenyl)-amide] | 22
21 | O=C(Nc1ccc(Cl)cc1)c1cc2ccccc2cc1O [3-Hydroxy-naphthalene-2-carboxylic acid (4-chloro-phenyl)-amide] | 69
22 | N#Cc1ccc(NC(=O)c2cc3ccccc3cc2O)cc1 [3-Hydroxy-naphthalene-2-carboxylic acid (4-cyano-phenyl)-amide] | 19
23 | O=C(Nc1ccc([N+](=O)[O-])cc1)c1cc2ccccc2cc1O [3-Hydroxy-naphthalene-2-carboxylic acid (4-nitro-phenyl)-amide] | 22
24 | O=C(NCCc1ccc(Cl)cc1)c1cc2ccccc2cc1O [3-Hydroxy-naphthalene-2-carboxylic acid [2-(4-chloro-phenyl)-ethyl]-amide] | > 100
25 | O=C(NCCc1ccc([N+](=O)[O-])cc1)c1cc2ccccc2cc1O [3-Hydroxy-naphthalene-2-carboxylic acid [2-(4-nitro-phenyl)-ethyl]-amide] | > 100
26 | O=C(Nc1ccccc1)c1cc2ccccc2cc1O [3-Hydroxy-naphthalene-2-carboxylic acid phenylamide] | > 100
27 | O=C(Nc1ccccn1)c1cc2ccccc2cc1O [3-Hydroxy-naphthalene-2-carboxylic acid pyridin-2-ylamide] | > 100
28 | O=C(Nc1cccnc1)c1cc2ccccc2cc1O [3-Hydroxy-naphthalene-2-carboxylic acid pyridin-3-ylamide] | > 100
29 | COc1cc2ccccc2cc1C(=O)NCc1ccc(Cl)cc1 [3-Methoxy-naphthalene-2-carboxylic acid 4-chloro-benzylamide] | 8
30 | COc1cc2ccccc2cc1C(=O)Nc1ccc([N+](=O)[O-])cc1 [3-Methoxy-naphthalene-2-carboxylic acid (4-nitro-phenyl)-amide] | > 100
31 | COCOc1cc2ccccc2cc1C(=O)Nc1ccc([N+](=O)[O-])cc1 [3-Methoxymethoxy-naphthalene-2-carboxylic acid (4-nitro-phenyl)-amide] | > 100
32 | COc1ccc2cc(O)c(CNCc3ccc(Cl)cc3)cc2c1 [3-[(4-Chloro-benzylamino)-methyl]-6-methoxy-naphthalen-2-ol] | > 100
33 | O=C(NCc1ccc([N+](=O)[O-])cc1)c1cc2cc(Br)ccc2c(Br)c1O [4,7-Dibromo-3-hydroxy-naphthalene-2-carboxylic acid 4-nitro-benzylamide] | 2.9
34 | O=C(NCc1ccc(Cl)cc1)c1ccc2ccccc2c1 [Naphthalene-2-carboxylic acid 4-chloro-benzylamide] | > 100
35 | O=C(Nc1ccc([N+](=O)[O-])cc1)c1ccc2ccccc2c1 [Naphthalene-2-carboxylic acid (4-nitro-phenyl)-amide] | > 100
